Laboratory results taken from patent EP4707280A1, “1,4-CINEOLE DERIVATIVE AND INTERMEDIATE THEREOF, HERBICIDE CONTAINING SAID DERIVATIVE AS ACTIVE INGREDIENT, METHOD FOR USING HERBICIDE, AND METHOD FOR PREPARING AGROCHEMICAL COMPOSITION” (HOKKO CHEMICAL INDUSTRY CO., LTD., priority 2023, dated 2024).

How the values were obtained:
Type in all cases: in vivo
Echinochloa crus-galli [1] = test: Test Example 3: herbicidal effect test by soil application in upland field; details: Echinochloa crus-galli, 120 g per 10 ares, sprayed one day after sowing, 14 days after application, read-out: weed inhibition rate
Procedure, shortened: (§1)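 Weed inhibition (%) was assessed 14 days after treatment, in duplicate per concentration group. Seeds had been mixed into the upper 1 cm of upland alluvial loam, and the soil surface was sprayed one day later with the diluted emulsifiable concentrate at 120 g active ingredient per 10 ares.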

Digitaria ciliaris [2] = test: as above; details: Digitaria ciliaris, 120 g per 10 ares, sprayed one day after sowing, 14 days after application, read-out: weed inhibition rate
Procedure, shortened: as §1

Echinochloa crus-galli [3] = test: Test Example 4: herbicidal effect test by stem and leaf treatment in upland field; details: Echinochloa crus-galli; 120 g per 10 ares; sprayed seven days after sowing, upland soil; 14 days after application; read-out: weed inhibition rate
[4] = test system: Echinochloa crus-galli var. formosensis; test: Test Example 2: herbicidal effect test by application during growth period of paddy rice; details: Echinochloa crus-galli; 120 g per 10 ares; applied seven days after sowing, flooded pots; 14 days after application; read-out: weed inhibition rate
Procedure, shortened: (§2)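 Paddy soil in Wagner pots was puddled with N:P:K 16:16:16 fertilizer, sown with 30 weed seeds per species at 0–1 cm and flooded to about 3 cm. Seven days after sowing, a water-diluted emulsifiable concentrate was dropped onto the water at 120 g active ingredient per 10 ares. Weed inhibition (%) was scored at 14 days, in duplicate.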

Scirpus juncoides [5] = test: as above; details: Schoenoplectiella juncoides; 120 g per 10 ares; applied seven days after sowing, flooded pots; 14 days after application; read-out: weed inhibition rate
Procedure, shortened: as §2

[6] = test system: Echinochloa crus-galli var. formosensis; test: Test Example 6: herbicidal effect test by application during growth period of paddy rice (low dose); details: Echinochloa crus-galli; 7.5 g per 10 ares; applied seven days after sowing, flooded pots; 14 days after application; read-out: weed inhibition rate
Procedure, shortened: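 Puddled, fertilised paddy soil was sown with 30 seeds per species and flooded to about 3 cm. After 7 days in a glass greenhouse, the diluted emulsifiable concentrate went into the water by dropper at 7.5 g/10 a. Effect scored at 14 days.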

[7] = test system: Echinochloa crus-galli var. formosensis; test: Test Example 1: herbicidal effect test by soil application in paddy rice; details: Echinochloa crus-galli, soil, 336 h; 120 g active ingredient per 10 ares; applied immediately after sowing, flooded pots; 14 days after application; read-out: weed inhibition rate
Procedure, shortened: (§3)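 Pre-emergence paddy soil application, 120 g a.i./10 a, emulsifiable concentrate diluted in water, applied by dropper right after sowing. Seeds (30/species) sown 0–1 cm in puddled, fertilized soil; flooded ~3 cm; glass greenhouse.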

Scirpus juncoides [8] = test: as above; details: Schoenoplectiella juncoides, soil, 336 h; 120 g active ingredient per 10 ares; applied immediately after sowing, flooded pots; 14 days after application; read-out: weed inhibition rate
Procedure, shortened: as §3

Echinochloa crus-galli [9] = test: Test Example 8: herbicidal effect test by stem and leaf treatment in upland field (low dose); details: Echinochloa crus-galli; 7.5 g per 10 ares; sprayed seven days after sowing, upland soil; 14 days after application; read-out: weed inhibition rate
Digitaria ciliaris [10] = test: as above; details: Digitaria ciliaris; 7.5 g per 10 ares; sprayed seven days after sowing, upland soil; 14 days after application; read-out: weed inhibition rate
Echinochloa crus-galli [11] = test: Test Example 7: herbicidal effect test by soil application in upland field (low dose); details: Echinochloa crus-galli, 7.5 g per 10 ares, sprayed one day after sowing, 14 days after application, read-out: weed inhibition rate
Method: (§4) The present test was conducted in duplicate for each chemical concentration group, and the weed inhibition rate (%) was determined 14 days after chemical application using the following formula (Math. 1). [formula]
(§5) Pots with an area of 36 cm^2 were filled with upland soil (alluvial loam), twenty seeds each of weeds of Digitaria ciliaris, and Echinochloa crus-galli were uniformly mixed with the top 1 cm layer of soil and the surface was lightly pressed down. One day after sowing, an emulsifiable concentrate prepared according to Formulation Example 5 using the compound shown below was diluted with water, and the diluted solution was sprayed onto the soil surface at a rate of 100 liters per 10 ares. The amount of the active ingredient to be applied was equivalent to 7.5 g per 10 ares. Fourteen days after chemical application, the herbicidal effect was evaluated according to the same criteria as in Test Example 1.

Digitaria ciliaris [12] = test: as above; details: Digitaria ciliaris, 7.5 g per 10 ares, sprayed one day after sowing, 14 days after application, read-out: weed inhibition rate
Method: as §4, §5

Digitaria ciliaris [13] = test: Test Example 4: herbicidal effect test by stem and leaf treatment in upland field; details: Digitaria ciliaris; 120 g per 10 ares; sprayed seven days after sowing, upland soil; 14 days after application; read-out: weed inhibition rate
[14] = test system: Echinochloa crus-galli var. formosensis; test: Test Example 5: herbicidal effect test by soil application in paddy rice (low dose); details: Echinochloa crus-galli, soil, 336 h; 7.5 g per 10 ares; applied immediately after sowing, flooded pots; 14 days after application; read-out: weed inhibition rate
Procedure, shortened: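 Paddy soil in Wagner pots was fertilized (N:P:K 16:16:16), puddled, sown with 30 seeds per weed species at 0–1 cm, then flooded to ~3 cm in a glass greenhouse. Emulsifiable concentrate diluted in water was dropper-applied into floodwater immediately, at 7.5 g active ingredient per 10 ares; duplicates, scored at 14 days.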

Cc1cccc(C)c1CO[C@@H]1C[C@]2(C(C)C)O[C@@]1(C)C[C@@H]2Cl [1-10, (1R,2S,4S,5R)-2-chloro-5-[(2,6-dimethylphenyl)methoxy]-1-isopropyl-4-methyl-7-oxabicyclo[2.2.1]heptane]
≥ 80%: inhibition at 1200 g/ha (Echinochloa crus-galli [1]) | inhibition at 1200 g/ha (Digitaria ciliaris [2]) | inhibition at 1200 g/ha (Echinochloa crus-galli [3]) | inhibition at 1200 g/ha [4] | inhibition at 1200 g/ha (Scirpus juncoides [5]) | inhibition at 75 g/ha [6] | pest or weed control at 1200 g/ha [7] | pest or weed control at 1200 g/ha (Scirpus juncoides [8]) | inhibition at 75 g/ha (Echinochloa crus-galli [9]) | inhibition at 75 g/ha (Digitaria ciliaris [10]) | inhibition at 75 g/ha (Echinochloa crus-galli [11]) | inhibition at 75 g/ha (Digitaria ciliaris [12]) | inhibition at 1200 g/ha (Digitaria ciliaris [13]) | inhibition at 75 g/ha [14]

COc1ccccc1CO[C@@H]1C[C@]2(C(C)C)O[C@@]1(C)C[C@@H]2Cl [1-11, (1R,2S,4S,5R)-2-chloro-1-isopropyl-5-[(2-methoxyphenyl)methoxy]-4-methyl-7-oxabicyclo[2.2.1]heptane]
≥ 80%: inhibition at 1200 g/ha (Echinochloa crus-galli [1]) | inhibition at 1200 g/ha (Digitaria ciliaris [2]) | inhibition at 1200 g/ha (Echinochloa crus-galli [3]) | inhibition at 1200 g/ha [4] | inhibition at 1200 g/ha (Scirpus juncoides [5]) | inhibition at 75 g/ha [6] | pest or weed control at 1200 g/ha [7] | pest or weed control at 1200 g/ha (Scirpus juncoides [8]) | inhibition at 75 g/ha (Echinochloa crus-galli [9]) | inhibition at 75 g/ha (Digitaria ciliaris [10]) | inhibition at 75 g/ha (Echinochloa crus-galli [11]) | inhibition at 75 g/ha (Digitaria ciliaris [12]) | inhibition at 1200 g/ha (Digitaria ciliaris [13]) | inhibition at 75 g/ha [14]

CC(C)[C@]12C[C@@H](OCc3ccccc3Cl)[C@](C)(C[C@@H]1Cl)O2 [1-13, (1R,2S,4S,5R)-2-chloro-5-[(2-chlorophenyl)methoxy]-1-isopropyl-4-methyl-7-oxabicyclo[2.2.1]heptane]
≥ 80%: inhibition at 1200 g/ha (Echinochloa crus-galli [1]) | inhibition at 1200 g/ha (Digitaria ciliaris [2]) | inhibition at 1200 g/ha (Echinochloa crus-galli [3]) | inhibition at 1200 g/ha [4] | inhibition at 1200 g/ha (Scirpus juncoides [5]) | inhibition at 75 g/ha [6] | pest or weed control at 1200 g/ha [7] | pest or weed control at 1200 g/ha (Scirpus juncoides [8]) | inhibition at 75 g/ha (Echinochloa crus-galli [9]) | inhibition at 75 g/ha (Digitaria ciliaris [10]) | inhibition at 75 g/ha (Echinochloa crus-galli [11]) | inhibition at 75 g/ha (Digitaria ciliaris [12]) | inhibition at 1200 g/ha (Digitaria ciliaris [13]) | inhibition at 75 g/ha [14]

CC(C)[C@]12C[C@@H](OCc3c(F)cccc3F)[C@](C)(C[C@@H]1Cl)O2 [1-14, (1R,2S,4S,5R)-2-chloro-5-[(2,6-difluorophenyl)methoxy]-1-isopropyl-4-methyl-7-oxabicyclo[2.2.1]heptane]
≥ 80%: inhibition at 1200 g/ha (Echinochloa crus-galli [1]) | inhibition at 1200 g/ha (Digitaria ciliaris [2]) | inhibition at 1200 g/ha (Echinochloa crus-galli [3]) | inhibition at 1200 g/ha [4] | inhibition at 1200 g/ha (Scirpus juncoides [5]) | inhibition at 75 g/ha [6] | pest or weed control at 1200 g/ha [7] | pest or weed control at 1200 g/ha (Scirpus juncoides [8]) | inhibition at 75 g/ha (Echinochloa crus-galli [9]) | inhibition at 75 g/ha (Digitaria ciliaris [10]) | inhibition at 75 g/ha (Echinochloa crus-galli [11]) | inhibition at 75 g/ha (Digitaria ciliaris [12]) | inhibition at 1200 g/ha (Digitaria ciliaris [13]) | inhibition at 75 g/ha [14]

CO[C@H]1C[C@]2(C)O[C@@]1(C(C)C)C[C@H]2OCc1ccccc1 [1-150, (1R,2S,4S,5R)-5-benzyloxy-1-isopropyl-2-methoxy-4-methyl-7-oxabicyclo[2.2.1]heptane]
≥ 80%: inhibition at 1200 g/ha (Echinochloa crus-galli [1]) | inhibition at 1200 g/ha (Digitaria ciliaris [2]) | inhibition at 1200 g/ha (Echinochloa crus-galli [3]) | inhibition at 1200 g/ha [4] | inhibition at 1200 g/ha (Scirpus juncoides [5]) | inhibition at 75 g/ha [6] | pest or weed control at 1200 g/ha [7] | pest or weed control at 1200 g/ha (Scirpus juncoides [8]) | inhibition at 75 g/ha (Echinochloa crus-galli [9]) | inhibition at 75 g/ha (Digitaria ciliaris [10]) | inhibition at 75 g/ha (Echinochloa crus-galli [11]) | inhibition at 75 g/ha (Digitaria ciliaris [12]) | inhibition at 1200 g/ha (Digitaria ciliaris [13]) | inhibition at 75 g/ha [14]
